# In article PMC3634507 (International Journal of Molecular Sciences, 2013):
# Several values for one entry are separate records, joined by “and”; a condition that tells them apart may be missing. Equal values may be shown once. Read-outs that look alike come from different tables or passages of the source.
# Tests used:
# BuChE from horse serum = molecular target: T1, BuChE from horse serum (Equus caballus, UniProt P81908); assay: biochemical
# T1 construct: BuChE from horse serum (2.5 units/1 mL); purchased Sigma-Aldrich; host or cells: horse serum
# Procedure: The activity against acetylcholinesterases from electric eel and butyrylcholinesterase from horse serum was determined in spectrophotometric Ellman’s assay.
# The activity against cholinesterases was determined in spectrophotometric Ellman’s assay.
# The reaction took place in 100 mM phosphate buffer, pH 8.0, containing 0.25 units of AChE or BuChE, 0.3 mmol 5,5′-dithio-bis-(2-nitrobenzoic) acid (DTNB) and 0.45 mmol acetylthiocholine or butyrylthiocholine as substrates. The tested compounds were incubated with the enzyme for 5 min at 25 °C prior to starting the reaction by adding the substrate.
# [1] = molecular target: T2, AChE from Electrophorus electricus (Electrophorus electricus, UniProt O42275); assay: Ellman's assay, AChE inhibition; assay type: biochemical
# T2 construct: purchased Sigma-Aldrich
# [2] = molecular target: T2, AChE from Electrophorus electricus; details: Ellman's assay, compounds 7-9 ref 39, cited from earlier work
# [3] = AChE IC50, Ellman's assay, electric eel AChE, pH 8.0, 25 °C
# [4] = electric eel AChE, read-out: AChE IC50
# [5] = Ellman's assay, horse serum BuChE, pH 8.0, 25 °C, n.a.: not active, read-out: BuChE IC50
# T2 sequence (O42275 24-633): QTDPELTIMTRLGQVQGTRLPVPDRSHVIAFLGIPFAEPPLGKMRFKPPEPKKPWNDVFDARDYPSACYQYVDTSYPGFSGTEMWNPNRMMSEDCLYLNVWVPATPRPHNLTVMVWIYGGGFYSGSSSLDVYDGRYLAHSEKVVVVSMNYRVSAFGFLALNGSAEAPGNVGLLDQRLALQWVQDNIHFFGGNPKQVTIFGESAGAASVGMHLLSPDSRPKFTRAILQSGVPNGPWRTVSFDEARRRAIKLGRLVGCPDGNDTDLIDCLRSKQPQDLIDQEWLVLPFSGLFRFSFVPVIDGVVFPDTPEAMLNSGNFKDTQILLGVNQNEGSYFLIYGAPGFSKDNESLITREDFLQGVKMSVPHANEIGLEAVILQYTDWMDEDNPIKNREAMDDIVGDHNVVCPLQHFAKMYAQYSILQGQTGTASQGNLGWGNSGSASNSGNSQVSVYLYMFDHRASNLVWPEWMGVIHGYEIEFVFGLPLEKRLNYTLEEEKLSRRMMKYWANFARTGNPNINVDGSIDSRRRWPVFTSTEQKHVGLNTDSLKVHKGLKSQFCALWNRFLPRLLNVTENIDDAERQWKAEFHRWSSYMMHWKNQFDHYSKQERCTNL
# T1 sequence (P81908 whole entry): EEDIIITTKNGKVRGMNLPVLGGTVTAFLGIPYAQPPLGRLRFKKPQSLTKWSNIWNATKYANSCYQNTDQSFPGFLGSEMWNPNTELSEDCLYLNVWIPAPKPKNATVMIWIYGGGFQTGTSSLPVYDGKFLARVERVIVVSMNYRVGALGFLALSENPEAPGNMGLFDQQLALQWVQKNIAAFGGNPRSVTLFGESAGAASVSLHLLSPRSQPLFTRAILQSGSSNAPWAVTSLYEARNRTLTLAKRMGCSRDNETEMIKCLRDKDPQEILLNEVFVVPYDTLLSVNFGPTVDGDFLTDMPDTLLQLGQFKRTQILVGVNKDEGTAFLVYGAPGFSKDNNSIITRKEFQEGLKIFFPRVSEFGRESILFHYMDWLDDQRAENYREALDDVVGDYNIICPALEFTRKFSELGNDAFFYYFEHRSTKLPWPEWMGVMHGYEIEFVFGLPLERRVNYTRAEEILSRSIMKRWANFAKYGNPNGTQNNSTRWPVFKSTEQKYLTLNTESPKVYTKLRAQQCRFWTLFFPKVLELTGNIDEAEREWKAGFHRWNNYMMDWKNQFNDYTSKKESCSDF
SMILES,"IC50 [1, 3] [nM]","IC50 ([1]; IC50 AChE, Ellman's assay)",other results
"O=C1c2ccccc2C(=O)N1CCCCCCNC1CCN(Cc2cccc(Cl)c2)CC1 [Compound 3, 2-(6-(1-(3-Chlorobenzyl)piperidin-4-ylamino)hexyl)isoindoline-1,3-dione]",44000,,IC50 (BuChE from horse serum): 7660 nM
"CCN(CC)CCCCCCN1C(=O)c2ccccc2C1=O [Compound 9, 2-(6-diethylaminohexyl)-isoindoline-1,3-dione]",,,"IC50 [2, 4]: 1230 nM; IC50 ([2]; read-out: IC50 AChE): 1230 nM"
"O=C1c2ccccc2C(=O)N1CCCNC1CCN(Cc2ccccc2)CC1 [Compound 1, 2-(3-(1-Benzylpiperidin-4-ylamino)propyl)isoindoline-1,3-dione]",18200,,IC50 (BuChE from horse serum; [5]): 22800 nM
"O=C1c2ccccc2C(=O)N1CCCCCNCc1ccccc1 [Compound 5, 2-(5-(Benzylamino)pentyl)isoindoline-1,3-dione]",170,170 nM,
"O=C1c2ccccc2C(=O)N1CCCCCNCc1ccccc1F [Compound 6, 2-(5-(2-fluorobenzylamino)pentyl)isoindoline-1,3-dione]",87.2,87 nM and 87.2 nM,
"CCN(CC)CCCCCCCN1C(=O)c2ccccc2C1=O [Compound 8, 2-(7-diethylaminoheptyl)-isoindoline-1,3-dione]",,,"IC50 [2, 4]: 1070 nM; IC50 ([2]; read-out: IC50 AChE): 1070 nM"
"O=C1c2ccccc2C(=O)N1CCCCCCNCc1ccccc1 [Compound 4, 2-(6-(Benzylamino)hexyl)isoindoline-1,3-dione]",330,330 nM,
"O=C1c2ccccc2C(=O)N1CCCCCCNC1CCN(Cc2ccccc2)CC1 [Compound 2, 2-(6-(1-Benzylpiperidin-4-ylamino)hexyl)isoindoline-1,3-dione]",53700,,IC50 (BuChE from horse serum; [5]): 24500 nM
